The values below come from ChEMBL document CHEMBL3046742, “Isolation and anxiolytic activity of 3,4-bis(3,4-dimethoxyphenyl)furan-2,5-dione from the ethanolic extract of heart wood of Cedrus deodara” (2012).

Test [1] relates to Mus musculus. Description: Anxiolytic activity in Mus musculus Swiss albino (mouse) assessed as increase in time spent in open arms at 2 mg/kg, po administered 1 hr prior to testing measured for 5 min by plus-maze test (reference value: 23 +/- 1.63 secs). The test is classed as functional.
In test [2] the test system is Mus musculus. Put plainly: Anxiolytic activity in Mus musculus Swiss albino (mouse) assessed as increase in ambulation at 2 mg/kg, po administered 45 min prior to testing measured for 5 min by open-field test relative to control. It is filed as functional, organism-based. More on the design: dose 2 mg/kg.
Test [3] has as its system Mus musculus. Description: Anxiolytic activity in Mus musculus Swiss albino (mouse) assessed as time spent in neutral zone at 2 mg/kg, po administered 1 hr prior to testing measured for 5 min by plus-maze test (reference value: 70 +/- 5.63 secs). It is filed as functional.
In test [4] the test system is Mus musculus. Description: Anxiolytic activity in Mus musculus Swiss albino (mouse) assessed as increase in time spent in light zone at 2 mg/kg, po administered 1 hr prior to testing measured for 5 min by light-dark test (reference value: 64 +/- 4.02 secs). It is filed as functional.
Test [5] has as its system Mus musculus. Description: Anxiolytic activity in Mus musculus Swiss albino (mouse) assessed as increase in time spent in open arms at 10 mg/kg, po administered 1 hr prior to testing measured for 5 min by plus-maze test (reference value: 23 +/- 1.63 secs). The test is classed as functional.
For test [6], the system named is Mus musculus. Description: Anxiolytic activity in Mus musculus Swiss albino (mouse) assessed as increase in time spent in light zone at 30 mg/kg, po administered 1 hr prior to testing measured for 5 min by light-dark test (reference value: 64 +/- 4.02 secs). The test is classed as functional.
The test system of test [7] is Mus musculus. Put plainly: Anxiolytic activity in Mus musculus Swiss albino (mouse) assessed as decrease in immobility duration at 2 mg/kg, po administered 1 hr prior to testing measured for 5 min by light-dark test relative to control. More on the design: dose 2 mg/kg. The test is classed as functional, organism-based.
Test [8] relates to Mus musculus. Put plainly: Anxiolytic activity in Mus musculus Swiss albino (mouse) assessed as increase in time spent in open arms at 100 mg/kg, po administered 1 hr prior to testing measured for 5 min by plus-maze test (reference value: 23 +/- 1.63 secs). It is filed as functional.
For test [9], the system named is Mus musculus. Put plainly: Anxiolytic activity in Mus musculus Swiss albino (mouse) assessed as time spent in neutral zone at 30 mg/kg, po administered 1 hr prior to testing measured for 5 min by plus-maze test (reference value: 70 +/- 5.63 secs). The test is classed as functional.
Test [10] has as its system Mus musculus. Description: Anxiolytic activity in Mus musculus Swiss albino (mouse) assessed as increase in ambulation at 200 to 400 mg/kg, po administered 45 min prior to testing measured for 5 min by open-field test relative to control. It is filed as functional, organism-based.
For test [11], the system named is Mus musculus. Description: Anxiolytic activity in Mus musculus Swiss albino (mouse) assessed as increase in time spent in light zone at 10 mg/kg, po administered 1 hr prior to testing measured for 5 min by light-dark test (reference value: 64 +/- 4.02 secs). It is filed as functional.
Test [12] deals with Mus musculus. Put plainly: Anxiolytic activity in Mus musculus Swiss albino (mouse) assessed as time spent in neutral zone at 10 mg/kg, po administered 1 hr prior to testing measured for 5 min by plus-maze test (reference value: 70 +/- 5.63 secs). The test is classed as functional.
In test [13] the test system is Mus musculus. Put plainly: Anxiolytic activity in Mus musculus Swiss albino (mouse) assessed as increase in time spent in light zone at 100 mg/kg, po administered 1 hr prior to testing measured for 5 min by light-dark test (reference value: 64 +/- 4.02 secs). The test is classed as functional.
Test [14] has as its system Mus musculus. Description: Anxiolytic activity in Mus musculus Swiss albino (mouse) assessed as time spent in neutral zone at 100 mg/kg, po administered 1 hr prior to testing measured for 5 min by plus-maze test (reference value: 70 +/- 5.63 secs). It is filed as functional.
Test [15] has as its system Mus musculus. Description: Anxiolytic activity in Mus musculus Swiss albino (mouse) assessed as increase in ambulation at 100 mg/kg, po administered 45 min prior to testing measured for 5 min by open-field test relative to control. It is filed as functional, organism-based. Set-up: dose 100 mg/kg.
The subject of test [16] is Mus musculus. Description: Anxiolytic activity in Mus musculus Swiss albino (mouse) assessed as increase in time spent in open arms at 30 mg/kg, po administered 1 hr prior to testing measured for 5 min by plus-maze test (reference value: 23 +/- 1.63 secs). It is filed as functional.

SMILES strings stand for the structures. Calls of active or inactive are those of the source. No cut-off for these calls is given here.

As for `CN1C(=O)CN=C(c2ccccc2)c2cc(Cl)ccc21` [DIAZEPAM], the Time is on record as 166 s in test [1], 32 s in test [3] and 171 s in test [4]. Moreover, the result in test [2] was Active.
`COc1ccc(C2=C(c3ccc(OC)c(OC)c3)C(=O)OC2=O)cc1OC`: the Time came out at 66 s in test [5]; 120 s in test [6]; 151 s in test [8]; 45 s in [9]; 95 s in test [11]; 65 s in test [12]. Further, the Time in test [13] turned out to be 145 s; in [14], 29 s; in [16], 110 s. Moreover, the result in [7] and in test [15] was Active. In addition, the outcome in test [10] was inactive.
